According to paper PMC7567097, “A nanoluciferase SARS-CoV-2 for rapid neutralization testing and screening of anti-infective drugs for COVID-19” (Nature Communications, 2020):
Where two headings read alike, the source gives them in different places.

How the values were obtained:
[1] = Cytotoxicity assay (CCK-8, 72 h) in Vero E6 cells; assay type: cell-based, African green monkey; settings: African green monkey, Vero E6 cells; for viability at 72 h: Vero, two replicates, read-out: cell viability (% of DMSO control)
Vero E6 cells = assay: Cytotoxicity assay (CCK-8, 72 h) in Vero E6 cells; assay type: cell-based, African green monkey; settings: Vero, two replicates
in vitro = settings: human; for viability: cell viability (% of DMSO control)
SARS-CoV-2-Nluc [2] = assay: microbe, parasite or virus in culture; assay type: cell-based; settings: Severe acute respiratory syndrome coronavirus 2, Vero C1008, 48 h
COVID-19 [3] = system: COVID-19; design: method as in PMID 32649078; settings: 1063 patients hospitalized with COVID-19; placebo group 15 days; cited from earlier work
SARS-CoV-2-Nluc [4] = assay: microbe, parasite or virus in culture; assay type: cell-based
[5] = data from literature; ref [51]-[68]; cited from earlier work
[6] = human exposures in the clinic, approved dosing schedules, ref [51]-[68], cited from earlier work; for Cmax: read-out: Exposure Cmax
COVID-19 [7] = system: COVID-19; design: method as in PMID 32392282; settings: >1400 patients, compared with no treatment; cited from earlier work
[8] = Severe acute respiratory syndrome coronavirus 2, 48 h
[9] = Severe acute respiratory syndrome coronavirus 2, read-out: EC50 (µM) Replicate 1
[10] = Severe acute respiratory syndrome coronavirus 2, read-out: EC50 (µM) Replicate 2

For `CCC(CC)COC(=O)[C@H](C)N[P@](=O)(OC[C@H]1O[C@@](C#N)(c2ccc3c(N)ncnn23)[C@H](O)[C@@H]1O)Oc1ccccc1` [Remdesivir], which viability at 72 h ([1]; Concentration 0.00152416) is on record?
The viability at 72 h was 100%.

What about the viability at 72 h ([1]; Concentration 0.00457247) of the same compound?
The viability at 72 h was 102%.

And the viability at 72 h ([1]; Concentration 0.0137174)?
Its viability at 72 h is 91.3%.

What about the viability at 72 h ([1]; Concentration 0.0411523) of the same compound?
Its viability at 72 h is 104%.

What about the viability at 72 h ([1]; Concentration 0.123457) of the same compound?
Its viability at 72 h is 80.3%.

What about the viability at 72 h ([1]; Concentration 0.37037) of the same compound?
Its viability at 72 h is 80.3%.

And the viability at 72 h ([1]; Concentration 1.11111)?
The viability at 72 h was 102%.

And the viability at 72 h ([1]; Concentration 3.33333)?
The viability at 72 h was 87.9%.

And the viability at 72 h ([1]; Concentration 10)?
Its viability at 72 h is 68%.

What about the CC50 at 72 h ([1]; 3-day cytotoxicity) of the same compound?
The CC50 at 72 h was greater than 50 µM.

And the “cell viability (% of DMSO control)” value (Vero E6 cells; Concentration 0.00152416)?
Its value is 98.69%.

What about the “cell viability (% of DMSO control)” value (Vero E6 cells; Concentration 0.00457247) of the same compound?
The value was 100.09%.

And the “cell viability (% of DMSO control)” value (Vero E6 cells; Concentration 0.0137174)?
Its value is 99.13%.

And the “cell viability (% of DMSO control)” value (Vero E6 cells; Concentration 0.0411523)?
The value was 93.89%.

And the “cell viability (% of DMSO control)” value (Vero E6 cells; Concentration 0.123457)?
Its value is 91.88%.

What about the “cell viability (% of DMSO control)” value (Vero E6 cells; Concentration 0.37037) of the same compound?
Its value is 90.48%.

And the “cell viability (% of DMSO control)” value (Vero E6 cells; Concentration 1.11111)?
The value was 90.39%.

What about the “cell viability (% of DMSO control)” value (Vero E6 cells; Concentration 3.33333) of the same compound?
The value was 89.52%.

And the “cell viability (% of DMSO control)” value (Vero E6 cells; Concentration 10)?
Its value is 70.92%.

And the CC50 (in vitro; CC50)?
Its CC50 is 32.5 µM.

And the CC50 (in vitro; CC50 (µM) Replicate 1)?
Its CC50 is 29 µM.

What about the CC50 (in vitro; CC50 (µM) Replicate 2) of the same compound?
The CC50 was 36.4 µM.

What about the viability (in vitro; Concentration 0.00152416) of the same compound?
The viability was 100%.

What about the viability (in vitro; Concentration 0.00457247) of the same compound?
Its viability is 99.8%.

What about the viability (in vitro; Concentration 0.0137174) of the same compound?
Its viability is 102%.

What about the viability (in vitro; Concentration 0.0411523) of the same compound?
The viability was 102%.

What about the viability (in vitro; Concentration 0.123457) of the same compound?
Its viability is 101%.

What about the viability (in vitro; Concentration 0.37037) of the same compound?
The viability was 96.9%.

What about the viability (in vitro; Concentration 1.11111) of the same compound?
The viability was 100%.

What about the viability (in vitro; Concentration 3.33333) of the same compound?
Its viability is 101%.

What about the viability (in vitro; Concentration 10) of the same compound?
The viability was 84.9%.

What about the “cell viability (% of DMSO control)” value (A549-hACE2 cells; Concentration 0.00152416) of the same compound?
The value was 98.72%.

What about the “cell viability (% of DMSO control)” value (A549-hACE2 cells; Concentration 0.00457247) of the same compound?
The value was 97.64%.

And the “cell viability (% of DMSO control)” value (A549-hACE2 cells; Concentration 0.0137174)?
Its value is 95.55%.

And the “cell viability (% of DMSO control)” value (A549-hACE2 cells; Concentration 0.0411523)?
The value was 98.85%.

What about the “cell viability (% of DMSO control)” value (A549-hACE2 cells; Concentration 0.123457) of the same compound?
The value was 98.18%.

And the “cell viability (% of DMSO control)” value (A549-hACE2 cells; Concentration 0.37037)?
The value was 92.18%.

And the “cell viability (% of DMSO control)” value (A549-hACE2 cells; Concentration 1.11111)?
The value was 95.21%.

And the “cell viability (% of DMSO control)” value (A549-hACE2 cells; Concentration 3.33333)?
The value was 90.42%.

And the “cell viability (% of DMSO control)” value (A549-hACE2 cells; Concentration 10)?
Its value is 87.86%.

What about the CC50 (A549-hACE2 cells; human) of the same compound?
The CC50 was 32.7 ± 5.2 µM.

What about the EC50 (SARS-CoV-2-Nluc [2]) of the same compound?
Its EC50 is 1.28 µM.

And the recovery time (COVID-19 [3])?
The recovery time was 11 days.

And the EC50 (SARS-CoV-2-Nluc [4]; [8])?
Its EC50 is 0.115 ± 0.007 µM.

What about the EC50 (SARS-CoV-2-Nluc [4]; [9]) of the same compound?
Its EC50 is 0.11 µM.

And the EC50 (SARS-CoV-2-Nluc [4]; [10])?
The EC50 was 0.12 µM.

With `Cc1cc(/C=C/C#N)cc(C)c1Nc1ccnc(Nc2ccc(C#N)cc2)n1` [Rilpivirine] as the compound, how does the CC50 (in vitro; CC50) read?
The CC50 was 14.6 ± 1.6 µM.

What about the CC50 (in vitro; CC50 (µM) Replicate 1) of the same compound?
Its CC50 is 13.5 µM.

What about the CC50 (in vitro; CC50 (µM) Replicate 2) of the same compound?
The CC50 was 15.8 µM.

And the Plasma protein binding [5]?
Its Plasma protein binding is 99.7%.

And the EC50 (SARS-CoV-2-Nluc [4]; [8])?
Its EC50 is 7.8 ± 1.04 µM.

And the EC50 (SARS-CoV-2-Nluc [4]; [9])?
Its EC50 is 7.06 µM.

And the EC50 (SARS-CoV-2-Nluc [4]; [10])?
The EC50 was 8.53 µM.

And the “Exposure Cmin” value [6]?
The value was 300 nM.

And the Cmax [6]?
The Cmax was 830 nM.

What does the source list for `CC(C)OC(=O)[C@H](C)N[P@](=O)(CO[C@H](C)Cn1cnc2c(N)ncnc21)Oc1ccccc1` [Tenofovir alafenamide (TAF), Tenofovir alafenamide]?
CC50 (in vitro; CC50): > 50 µM; CC50 (in vitro; CC50 (µM) Replicate 1): > 50 µM; CC50 (in vitro; CC50 (µM) Replicate 2): > 50 µM; Plasma protein binding [5]: 80%; EC50 (SARS-CoV-2-Nluc [4]; [8]): > 10 µM; EC50 (SARS-CoV-2-Nluc [4]; [9]): > 10 µM; EC50 (SARS-CoV-2-Nluc [4]; [10]): > 10 µM; Cmax [6]: 400 nM

With `CCC[C@@]1(CCc2ccccc2)CC(O)=C([C@H](CC)c2cccc(NS(=O)(=O)c3ccc(C(F)(F)F)cn3)c2)C(=O)O1` [Tipranavir] as the compound, how does the CC50 (in vitro; CC50) read?
The CC50 was 28.4 ± 0.5 µM.

What about the CC50 (in vitro; CC50 (µM) Replicate 1) of the same compound?
Its CC50 is 28.8 µM.

What about the CC50 (in vitro; CC50 (µM) Replicate 2) of the same compound?
Its CC50 is 28.1 µM.

What about the Plasma protein binding [5] of the same compound?
The Plasma protein binding was 99.9%.

What about the “Selectivity index (SI) = CC50/EC50” value (SARS-CoV-2-Nluc [4]) of the same compound?
Its value is 3.3.

And the EC50 (SARS-CoV-2-Nluc [4]; [8])?
The EC50 was 8.65 ± 0.16 µM.

And the EC50 (SARS-CoV-2-Nluc [4]; [9])?
Its EC50 is 8.53 µM.

And the EC50 (SARS-CoV-2-Nluc [4]; [10])?
Its EC50 is 8.76 µM.

What about the “Exposure Cmin” value [6] of the same compound?
Its value is 30800 nM.

What about the Cmax [6] of the same compound?
The Cmax was 130000 nM.

For `CC[C@H]1OC(=O)[C@H](C)[C@@H](O[C@H]2C[C@@](C)(OC)[C@@H](O)[C@H](C)O2)[C@H](C)[C@@H](O[C@@H]2O[C@H](C)C[C@H](N(C)C)[C@H]2O)[C@](C)(O)C[C@@H](C)CN(C)[C@H](C)[C@@H](O)[C@]1(C)O` [azithromycin], which “association of treatment with fatality rate among hospitalized patients” value (COVID-19 [7]) is on record?
The value was “not associated with significant differences in fatality rate”.

With `CCN(CCO)CCCC(C)Nc1ccnc2cc(Cl)ccc12` (stereo not drawn) [hydroxychloroquine] as the compound, how does the “association of treatment with fatality rate among hospitalized patients” value (COVID-19 [7]) read?
The value was “not associated with significant differences in fatality rate”.
